Assay: xn = mol fraction of the nth substance listed
Conditions: 100 kPa, Liquid; for speed of sound: Frequency=3 MHz, Sing-around technique in a fixed-path interferometer; for mass density: Vibrating tube method

CCCCn1cc[n+](C)c1C.F[B-](F)(F)F [1-butyl-2,3-dimethylimidazolium tetrafluoroborate] + CCn1cc[n+](C)c1.F[B-](F)(F)F
Conditions	mass density, 293.15 K [kg/m3]	mass density, 298.15 K [kg/m3]	mass density, 303.15 K [kg/m3]	mass density, 308.15 K [kg/m3]	speed of sound, 293.15 K [m/s]	speed of sound, 298.15 K [m/s]	speed of sound, 303.15 K [m/s]	speed of sound, 308.15 K [m/s]
x1 = 0.0952	1270.9	1267.3	1264.1	1260.5	1636.2	1624.1	1611.9	1600.4
x1 = 0.1386	1265.5	1262.1	1259	1255.6	1638.2	1626	1613.7	1602.1
x1 = 0.1754	1261.2	1257.9	1255	1251.7	1639.8	1627.4	1615.1	1603.4
x1 = 0.2361	1254.5	1251.5	1248.7	1245.7	1642.2	1629.6	1617.2	1605.3
x1 = 0.2819	1249.8	1247	1244.3	1241.4	1643.8	1631.1	1618.5	1606.6
x1 = 0.3347	1244.7	1242.1	1239.5	1236.7	1645.4	1632.5	1619.9	1607.9
x1 = 0.3722	1241.3	1238.8	1236.3	1233.6	1646.5	1633.5	1620.8	1608.7
x1 = 0.4192	1237.2	1234.9	1232.4	1229.9	1647.7	1634.6	1621.8	1609.7
x1 = 0.4451	1235.1	1232.8	1230.4	1227.9	1648.3	1635.1	1622.4	1610.2
x1 = 0.4807	1232.2	1230	1227.7	1225.2	1649.1	1635.8	1623	1610.8
x1 = 0.5327	1228.2	1226.1	1223.8	1221.4	1650.2	1636.8	1623.9	1611.7
x1 = 0.5785	1224.8	1222.8	1220.5	1218.2	1651	1637.6	1624.7	1612.4
x1 = 0.6364	1220.6	1218.7	1216.4	1214.2	1652.1	1638.5	1625.6	1613.2
x1 = 0.6729	1218	1216.1	1213.9	1211.7	1652.7	1639.1	1626.1	1613.7
x1 = 0.7342	1213.7	1211.8	1209.7	1207.6	1653.8	1640.1	1627.1	1614.6
x1 = 0.7738	1210.9	1209	1206.9	1204.9	1654.5	1640.8	1627.7	1615.2
x1 = 0.8254	1207.2	1205.4	1203.2	1201.3	1655.5	1641.7	1628.6	1616.1
x1 = 0.8739	1203.6	1201.8	1199.7	1197.8	1656.5	1642.7	1629.5	1616.9
x1 = 1	1193.5	1191.8	1189.7	1187.9	1659.7	1645.7	1632.5	1619.8

— the NIST ThermoML archive (doi:10.1016/j.jct.2016.08.010)
